System: NCI-H1876 complex spheroid viability
Experiment: Anticancer human tumor NCI-H1876 cell line growth inhibition [LSD1];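 further: spheroids exposed to compounds for one week before readout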;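 on viability, T/C: 100% = DMSO vehicle-treated spheroids so lower means fewer viable cells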
Conditions: for IC50: curve of first compound; for viability, T/C: stronger effect = lower value
Outline: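 Drug combinations with the LSD1 inhibitor iadademstat tested on tumor cells co-cultured as spheroids with endothelial cells and mesenchymal stem cells. Concentrations descended in half-log increments from clinical Cmax or 10 microM.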

[1] = second compound 0.1 µM, first compound 0.0316 µM
[2] = second compound 0.1 µM, first compound 0.1 µM
[3] = second compound 0.1 µM, first compound 0.316 µM
[4] = second compound 0.1 µM, first compound 1 µM
[5] = second compound 0.1 µM, first compound 3.16 µM
[6] = second compound 0.1 µM, first compound 10 µM
[7] = second compound 0.316 µM, first compound 0.0316 µM
[8] = second compound 0.316 µM, first compound 0.1 µM
[9] = second compound 0.316 µM, first compound 0.316 µM
[10] = second compound 0.316 µM, first compound 1 µM
[11] = second compound 0.316 µM, first compound 3.16 µM
[12] = second compound 0.316 µM, first compound 10 µM
[13] = second compound 1 µM, first compound 0.0316 µM
[14] = second compound 1 µM, first compound 0.1 µM
[15] = second compound 1 µM, first compound 0.316 µM
[16] = second compound 1 µM, first compound 1 µM
[17] = second compound 1 µM, first compound 3.16 µM
[18] = second compound 1 µM, first compound 10 µM
[19] = second compound 3.16 µM, first compound 0.0316 µM
[20] = second compound 3.16 µM, first compound 0.1 µM
[21] = second compound 3.16 µM, first compound 0.316 µM
[22] = second compound 3.16 µM, first compound 1 µM
[23] = second compound 3.16 µM, first compound 3.16 µM
[24] = second compound 3.16 µM, first compound 10 µM
[25] = second compound 10 µM, first compound 0.0316 µM
[26] = second compound 10 µM, first compound 0.1 µM
[27] = second compound 10 µM, first compound 0.316 µM
[28] = second compound 10 µM, first compound 1 µM
[29] = second compound 10 µM, first compound 3.16 µM
[30] = second compound 10 µM, first compound 10 µM
[31] = second compound 0.1 µM, first compound 0.00949 µM
[32] = second compound 0.1 µM, first compound 0.03 µM
[33] = second compound 0.1 µM, first compound 0.0949 µM
[34] = second compound 0.1 µM, first compound 0.3 µM
[35] = second compound 0.316 µM, first compound 0.00949 µM
[36] = second compound 0.316 µM, first compound 0.03 µM
[37] = second compound 0.316 µM, first compound 0.0949 µM
[38] = second compound 0.316 µM, first compound 0.3 µM
[39] = second compound 1 µM, first compound 0.00949 µM
[40] = second compound 1 µM, first compound 0.03 µM
[41] = second compound 1 µM, first compound 0.0949 µM
[42] = second compound 1 µM, first compound 0.3 µM
[43] = second compound 3.16 µM, first compound 0.00949 µM
[44] = second compound 3.16 µM, first compound 0.03 µM
[45] = second compound 3.16 µM, first compound 0.0949 µM
[46] = second compound 3.16 µM, first compound 0.3 µM
[47] = second compound 10 µM, first compound 0.00949 µM
[48] = second compound 10 µM, first compound 0.03 µM
[49] = second compound 10 µM, first compound 0.0949 µM
[50] = second compound 10 µM, first compound 0.3 µM

CC1(C)CCC(CN2CCN(c3ccc(C(=O)NS(=O)(=O)c4ccc(NCC5CCOCC5)c([N+](=O)[O-])c4)c(Oc4cnc5[nH]ccc5c4)c3)CC2)=C(c2ccc(Cl)cc2)C1 + NC1CCC(NC2CC2c2ccccc2)CC1
IC50 (second compound 0.1 µM): 2140 nM | IC50 (second compound 0.316 µM): 2000 nM | IC50 (second compound 1 µM): 2090 nM | IC50 (second compound 3.16 µM): 2060 nM | IC50 (second compound 10 µM): 2010 nM | viability, T/C [1]: 103% | viability, T/C [2]: 98.4% | viability, T/C [3]: 99.3% | viability, T/C [4]: 100% | viability, T/C [5]: 24.5% | viability, T/C [6]: 9.5% | viability, T/C [7]: 104% | viability, T/C [8]: 105% | viability, T/C [9]: 97% | viability, T/C [10]: 89.1% | viability, T/C [11]: 24.3% | viability, T/C [12]: 10.5% | viability, T/C [13]: 92.9% | viability, T/C [14]: 104% | viability, T/C [15]: 102% | viability, T/C [16]: 98.9% | viability, T/C [17]: 22.4% | viability, T/C [18]: 8.48% | viability, T/C [19]: 115% | viability, T/C [20]: 96.2% | viability, T/C [21]: 103% | viability, T/C [22]: 101% | viability, T/C [23]: 19.8% | viability, T/C [24]: 7.55% | viability, T/C [25]: 99.2% | viability, T/C [26]: 110% | viability, T/C [27]: 87.2% | viability, T/C [28]: 90.6% | viability, T/C [29]: 23.6% | viability, T/C [30]: 8%

CC1COCCN1c1cc(C2(S(C)(=N)=O)CC2)nc(-c2ccnc3[nH]ccc23)n1 (stereo not given) + NC1CCC(NC2CC2c2ccccc2)CC1
IC50 (second compound 0.1 µM): 7480 nM | IC50 (second compound 0.316 µM): 6670 nM | IC50 (second compound 1 µM): 6720 nM | IC50 (second compound 3.16 µM): 6220 nM | IC50 (second compound 10 µM): 5470 nM | viability, T/C [1]: 115% | viability, T/C [2]: 116% | viability, T/C [3]: 115% | viability, T/C [4]: 124% | viability, T/C [5]: 91.6% | viability, T/C [6]: 35.9% | viability, T/C [7]: 119% | viability, T/C [8]: 129% | viability, T/C [9]: 117% | viability, T/C [10]: 105% | viability, T/C [11]: 86.2% | viability, T/C [12]: 30.7% | viability, T/C [13]: 118% | viability, T/C [14]: 116% | viability, T/C [15]: 114% | viability, T/C [16]: 113% | viability, T/C [17]: 86.6% | viability, T/C [18]: 30.7% | viability, T/C [19]: 116% | viability, T/C [20]: 130% | viability, T/C [21]: 126% | viability, T/C [22]: 110% | viability, T/C [23]: 80.6% | viability, T/C [24]: 28.8% | viability, T/C [25]: 114% | viability, T/C [26]: 116% | viability, T/C [27]: 113% | viability, T/C [28]: 101% | viability, T/C [29]: 73.7% | viability, T/C [30]: 24.2%

CCN(c1cc(-c2ccc(CN3CCOCC3)cc2)cc(C(=O)NCc2c(C)cc(C)[nH]c2=O)c1C)C1CCOCC1 + NC1CCC(NC2CC2c2ccccc2)CC1
IC50 (second compound 0.1 µM): > 3000 nM | IC50 (second compound 0.316 µM): > 3000 nM | IC50 (second compound 1 µM): > 3000 nM | IC50 (second compound 3.16 µM): > 3000 nM | IC50 (second compound 10 µM): > 3000 nM | viability, T/C [31]: 108% | viability, T/C [32]: 103% | viability, T/C [33]: 104% | viability, T/C [34]: 93.8% | viability, T/C (second compound 0.1 µM, first compound 0.949 µM): 85.3% | viability, T/C (second compound 0.1 µM, first compound 3 µM): 64% | viability, T/C [35]: 110% | viability, T/C [36]: 117% | viability, T/C [37]: 102% | viability, T/C [38]: 93.3% | viability, T/C (second compound 0.316 µM, first compound 0.949 µM): 87.1% | viability, T/C (second compound 0.316 µM, first compound 3 µM): 65.8% | viability, T/C [39]: 104% | viability, T/C [40]: 111% | viability, T/C [41]: 102% | viability, T/C [42]: 91.3% | viability, T/C (second compound 1 µM, first compound 0.949 µM): 84.9% | viability, T/C (second compound 1 µM, first compound 3 µM): 54.4% | viability, T/C [43]: 99.8% | viability, T/C [44]: 109% | viability, T/C [45]: 106% | viability, T/C [46]: 108% | viability, T/C (second compound 3.16 µM, first compound 0.949 µM): 86.3% | viability, T/C (second compound 3.16 µM, first compound 3 µM): 56.3% | viability, T/C [47]: 115% | viability, T/C [48]: 106% | viability, T/C [49]: 97.4% | viability, T/C [50]: 97.6% | viability, T/C (second compound 10 µM, first compound 0.949 µM): 79% | viability, T/C (second compound 10 µM, first compound 3 µM): 56.8%

Nc1ncn(C2CC(O)C(CO)S2)c(=O)n1 (stereo not given) + NC1CCC(NC2CC2c2ccccc2)CC1
IC50 (second compound 0.1 µM): > 300 nM | IC50 (second compound 0.316 µM): > 300 nM | IC50 (second compound 1 µM): > 300 nM | IC50 (second compound 3.16 µM): > 300 nM | IC50 (second compound 10 µM): > 300 nM | viability, T/C (second compound 0.1 µM, first compound 0.000949 µM): 106% | viability, T/C (second compound 0.1 µM, first compound 0.003 µM): 100% | viability, T/C [31]: 92.6% | viability, T/C [32]: 87.9% | viability, T/C [33]: 84.5% | viability, T/C [34]: 70.7% | viability, T/C (second compound 0.316 µM, first compound 0.000949 µM): 105% | viability, T/C (second compound 0.316 µM, first compound 0.003 µM): 113% | viability, T/C [35]: 98.5% | viability, T/C [36]: 99.2% | viability, T/C [37]: 85.7% | viability, T/C [38]: 67.8% | viability, T/C (second compound 1 µM, first compound 0.000949 µM): 109% | viability, T/C (second compound 1 µM, first compound 0.003 µM): 117% | viability, T/C [39]: 99.2% | viability, T/C [40]: 93.4% | viability, T/C [41]: 85.2% | viability, T/C [42]: 64.1% | viability, T/C (second compound 3.16 µM, first compound 0.000949 µM): 119% | viability, T/C (second compound 3.16 µM, first compound 0.003 µM): 113% | viability, T/C [43]: 105% | viability, T/C [44]: 91.5% | viability, T/C [45]: 81.3% | viability, T/C [46]: 63.2% | viability, T/C (second compound 10 µM, first compound 0.000949 µM): 118% | viability, T/C (second compound 10 µM, first compound 0.003 µM): 108% | viability, T/C [47]: 98.8% | viability, T/C [48]: 96.9% | viability, T/C [49]: 81.1% | viability, T/C [50]: 57%

Reference: PubChem BioAssay AID1918957 (Molecular Pharmacology Branch, DTP, NCI, 2023)
